# How the values were obtained:
# Assay in all cases: cells
# COLO-800 = type: functional, cell-based, Homo sapiens; details: Homo sapiens, COLO-800;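 further: growth inhibition of COLO-800 cells, read out with a cell viability assay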
# Description: SANGER: Inhibition of human COLO-800 cell growth in a cell viability assay.
# K562 = type: functional, cell-based, Homo sapiens; details: Homo sapiens, K562
# Description: SANGER: Inhibition of human K-562 cell growth in a cell viability assay.
# NCI-H446 = type: functional, cell-based, Homo sapiens; details: Homo sapiens, NCI-H446;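 further: growth inhibition of NCI-H446 cells determined by a cell viability assay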
# Description: SANGER: Inhibition of human NCI-H446 cell growth in a cell viability assay.
# ALL-PO = type: functional, cell-based, Homo sapiens; details: Homo sapiens, ALL-PO;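 further: growth inhibition of ALL-PO cells, read out by a cell viability assay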
# Description: SANGER: Inhibition of human ALL-PO cell growth in a cell viability assay.
# NB5 = type: functional, cell-based, Homo sapiens; details: Homo sapiens, NB5;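 further: growth inhibition of NB5 cells, read out as cell viability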
# Description: SANGER: Inhibition of human NB5 cell growth in a cell viability assay.
# Becker = type: functional, cell-based, Homo sapiens; details: Homo sapiens, Becker;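 further: growth inhibition of Becker cells, read out with a cell viability assay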
# Description: SANGER: Inhibition of human Becker cell growth in a cell viability assay.
# NH-12 = type: functional, cell-based, Homo sapiens; details: Homo sapiens, NH-12;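 further: growth inhibition of NH-12 cells, read out with a cell viability assay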
# Description: SANGER: Inhibition of human NH-12 cell growth in a cell viability assay.
# NCI-H209 = type: functional, cell-based, Homo sapiens; details: Homo sapiens, NCI-H209;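 further: growth inhibition of human NCI-H209 cells, measured by a cell viability assay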
# Description: SANGER: Inhibition of human NCI-H209 cell growth in a cell viability assay.
# SNU1 = type: functional, cell-based, Homo sapiens; details: Homo sapiens, SNU1;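 further: growth inhibition of human NCI-SNU-1 cells, measured with a cell viability assay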
# Description: SANGER: Inhibition of human NCI-SNU-1 cell growth in a cell viability assay.
# HH = type: functional, cell-based, Homo sapiens; details: Homo sapiens, HH
# Description: SANGER: Inhibition of human HH cell growth in a cell viability assay.
# RCC10RGB = type: functional, cell-based, Homo sapiens; details: Homo sapiens, RCC10RGB;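 further: growth inhibition of human RCC10RGB cells, read out by a cell viability assay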
# Description: SANGER: Inhibition of human RCC10RGB cell growth in a cell viability assay.
# COR-L88 = type: functional, cell-based, Homo sapiens; details: Homo sapiens, COR-L88;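 further: growth inhibition of COR-L88 cells, read out with a cell viability assay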
# Description: SANGER: Inhibition of human COR-L88 cell growth in a cell viability assay.
# SJSA-1 = type: functional, cell-based, Homo sapiens; details: Homo sapiens, SJSA-1;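 further: growth inhibition of human SJSA-1 cells, read out through a cell viability measurement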
# Description: SANGER: Inhibition of human SJSA-1 cell growth in a cell viability assay.
# HT-144 = type: functional, cell-based, Homo sapiens; details: Homo sapiens, HT-144
# Description: SANGER: Inhibition of human HT-144 cell growth in a cell viability assay.
# SW872 = type: functional, cell-based, Homo sapiens; details: Homo sapiens, SW872;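 further: growth inhibition of SW872 cells, read out by a viability assay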
# Description: SANGER: Inhibition of human SW872 cell growth in a cell viability assay.
# NCI-H1838 = type: functional, cell-based, Homo sapiens; details: Homo sapiens, NCI-H1838;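 further: growth inhibition of NCI-H1838 cells, determined with a cell viability readout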
# Description: SANGER: Inhibition of human NCI-H1838 cell growth in a cell viability assay.
# LB2241-RCC = type: functional, cell-based, Homo sapiens; details: Homo sapiens, LB2241-RCC;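 further: cell viability assay measuring how strongly the cultured human renal carcinoma line is prevented from growing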
# Description: SANGER: Inhibition of human LB2241-RCC cell growth in a cell viability assay.
# SBC-1 = type: functional, cell-based, Homo sapiens; details: Homo sapiens, SBC-1;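 further: cell viability assay measuring growth inhibition of the SBC-1 cell line, IC50 being the concentration that halves growth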
# Description: SANGER: Inhibition of human SBC-1 cell growth in a cell viability assay.
# GR-ST = type: functional, cell-based, Homo sapiens; details: Homo sapiens, GR-ST
# Description: SANGER: Inhibition of human GR-ST cell growth in a cell viability assay.
# NCI-N87 = type: functional, cell-based; details: Homo sapiens;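 further: growth inhibition of human NCI-N87 cells, read out with a cell viability assay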
# Description: SANGER: Inhibition of human NCI-N87 cell growth in a cell viability assay.
# KM-H2 = type: functional, cell-based, Homo sapiens; details: Homo sapiens, KM-H2;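 further: growth inhibition of KM-H2 cells, read out by a cell viability assay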
# Description: SANGER: Inhibition of human KM-H2 cell growth in a cell viability assay.
# CW-2 = type: functional, cell-based, Homo sapiens; details: Homo sapiens, CW-2;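 further: growth inhibition of CW-2 cells, read out by a cell viability assay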
# Description: SANGER: Inhibition of human CW-2 cell growth in a cell viability assay.
# HCE-T = type: functional, cell-based, Homo sapiens; details: Homo sapiens, HCE-T;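 further: cell viability assay read-out, reporting inhibition of HCE-T cell growth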
# Description: SANGER: Inhibition of human HCE-T cell growth in a cell viability assay.
# EW-13 = type: functional, cell-based, Homo sapiens; details: Homo sapiens, EW-13; read-out: IC50;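 further: growth inhibition of EW-13 cells, read out with a cell viability assay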
# Description: SANGER: Inhibition of human EW-13 cell growth in a cell viability assay.
# LXF-289 cell line = type: functional, cell-based; details: Homo sapiens
# Description: SANGER: Inhibition of human LXF-289 cell growth in a cell viability assay.
# COLO-824 = type: functional, cell-based, Homo sapiens; details: Homo sapiens, COLO-824
# Description: SANGER: Inhibition of human COLO-824 cell growth in a cell viability assay.
# MHH-NB-11 = type: functional, cell-based, Homo sapiens; details: Homo sapiens, MHH-NB-11;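 further: growth inhibition of human MHH-NB-11 cells, read out by a cell viability assay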
# Description: SANGER: Inhibition of human MHH-NB-11 cell growth in a cell viability assay.
# HCC2218 = type: functional, cell-based, Homo sapiens; details: Homo sapiens, HCC2218;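 further: cell viability assay read-out, with IC50 given as the concentration that inhibits growth of the cell line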
# Description: SANGER: Inhibition of human HCC2218 cell growth in a cell viability assay.
# HD-MY-Z = type: functional, cell-based, Homo sapiens; details: Homo sapiens, HD-MY-Z;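 further: growth inhibition of HD-MY-Z cells, read out with a cell viability assay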
# Description: SANGER: Inhibition of human HD-MY-Z cell growth in a cell viability assay.
# SK-MEL-2 = type: functional, cell-based, Homo sapiens; details: Homo sapiens, SK-MEL-2;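 further: growth inhibition of human SK-MEL-2 cells measured with a cell viability assay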
# Description: SANGER: Inhibition of human SK-MEL-2 cell growth in a cell viability assay.
# MSTO-211H = type: functional, cell-based, Homo sapiens; details: Homo sapiens, MSTO-211H
# Description: SANGER: Inhibition of human MSTO-211H cell growth in a cell viability assay.
# KNS-42 = type: functional, cell-based; details: Homo sapiens;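 further: growth inhibition of KNS-42 cells, read out with a cell viability assay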
# Description: SANGER: Inhibition of human KNS-42 cell growth in a cell viability assay.
# Lu-65 = type: functional, cell-based, Homo sapiens; details: Homo sapiens, Lu-65;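 further: growth inhibition of Lu-65 cancer cells, read out by a cell viability assay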
# Description: SANGER: Inhibition of human LU-65 cell growth in a cell viability assay.
# MMAC-SF = type: functional, cell-based; details: Homo sapiens;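 further: growth inhibition of human MMAC-SF cells, read out with a cell viability assay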
# Description: SANGER: Inhibition of human MMAC-SF cell growth in a cell viability assay.
# KP-N-YS = type: functional, cell-based, Homo sapiens; details: Homo sapiens, KP-N-YS;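 further: cell viability assay measuring inhibition of cell line growth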
# Description: SANGER: Inhibition of human KP-N-YS cell growth in a cell viability assay.
# SNU-5 = type: functional, cell-based, Homo sapiens; details: Homo sapiens, SNU-5;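 further: cell viability readout used to measure growth inhibition in human NCI-SNU-5 cells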
# Description: SANGER: Inhibition of human NCI-SNU-5 cell growth in a cell viability assay.
# OMC-1 = type: functional, cell-based, Homo sapiens; details: Homo sapiens, OMC-1;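 further: growth inhibition of the OMC-1 cell line, measured by a cell viability assay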
# Description: SANGER: Inhibition of human OMC-1 cell growth in a cell viability assay.
# DB = type: functional, cell-based, Homo sapiens; details: Homo sapiens, DB
# Description: SANGER: Inhibition of human DB cell growth in a cell viability assay.
# NCI-H23 = type: functional, cell-based, Homo sapiens; details: Homo sapiens, NCI-H23;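 further: cell viability assay measuring growth inhibition of NCI-H23 cells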
# Description: SANGER: Inhibition of human NCI-H23 cell growth in a cell viability assay.
# EW-11 = type: functional, cell-based, Homo sapiens; details: Homo sapiens, EW-11;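 further: growth inhibition of human EW-11 cells, measured with a cell viability assay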
# Description: SANGER: Inhibition of human EW-11 cell growth in a cell viability assay.
# CGTH-W-1 = type: functional, cell-based, Homo sapiens; details: Homo sapiens, CGTH-W-1;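 further: growth inhibition of human CGTH-W-1 cells measured by cell viability assay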
# Description: SANGER: Inhibition of human CGTH-W-1 cell growth in a cell viability assay.
# MLMA = type: functional, cell-based, Homo sapiens; details: Homo sapiens, MLMA;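 further: growth inhibition of MLMA cells (human), determined through a cell viability readout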
# Description: SANGER: Inhibition of human MLMA cell growth in a cell viability assay.
# OS-RC-2 = type: functional, cell-based, Homo sapiens; details: Homo sapiens, OS-RC-2;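 further: growth inhibition of human OS-RC-2 cells, measured by a cell viability assay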
# Description: SANGER: Inhibition of human OS-RC-2 cell growth in a cell viability assay.
# ES7 = type: functional, cell-based, Homo sapiens; details: Homo sapiens, ES7;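 further: growth inhibition of cultured human ES7 cells, read out as cell viability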
# Description: SANGER: Inhibition of human ES7 cell growth in a cell viability assay.
# SF-268 = type: functional, cell-based, Homo sapiens; details: Homo sapiens, SF-268;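 further: growth inhibition of SF-268 cells determined with a cell viability assay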
# Description: SANGER: Inhibition of human SF268 cell growth in a cell viability assay.
# NCI-H747 = type: functional, cell-based, Homo sapiens; details: Homo sapiens, NCI-H747;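 further: growth inhibition of human NCI-H747 cells, read out by a cell viability assay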
# Description: SANGER: Inhibition of human NCI-H747 cell growth in a cell viability assay.
# GI-ME-N = type: functional, cell-based, Homo sapiens; details: Homo sapiens, GI-ME-N;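 further: growth inhibition of human GI-ME-N cells, read out with a cell viability assay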
# Description: SANGER: Inhibition of human GI-ME-N cell growth in a cell viability assay.
# MPP-89 = type: functional, cell-based, Homo sapiens; details: Homo sapiens, MPP-89;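 further: growth inhibition of human MPP-89 cells, read out with a cell viability assay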
# Description: SANGER: Inhibition of human MPP-89 cell growth in a cell viability assay.
# NCI-H1304 = type: functional, cell-based, Homo sapiens; details: Homo sapiens, NCI-H1304;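 further: growth inhibition of the cancer cell line, measured in a cell viability assay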
# Description: SANGER: Inhibition of human NCI-H1304 cell growth in a cell viability assay.
# GOTO = type: functional, cell-based, Homo sapiens; details: Homo sapiens, GOTO;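 further: growth inhibition of GOTO cells, read out by a cell viability assay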
# Description: SANGER: Inhibition of human GOTO cell growth in a cell viability assay.
structure (smiles),measurement,setting,value
C/C(=C\c1csc(C)n1)[C@@H]1C[C@@H]2O[C@]2(C)CCC[C@H](C)[C@H](O)[C@@H](C)C(=O)C(C)(C)[C@@H](O)CC(=O)O1 [PATUPILONE],IC50,COLO-800,> 32 nM
same,IC50,K562,6.89 nM
same,IC50,NCI-H446,21.4 nM
same,IC50,ALL-PO,1.47 nM
same,IC50,NB5,10.6 nM
same,IC50,Becker,2.86 nM
same,IC50,NH-12,0.891 nM
same,IC50,NCI-H209,20.9 nM
same,IC50,SNU1,> 32 nM
same,IC50,HH,9.8 nM
same,IC50,RCC10RGB,19.7 nM
same,IC50,COR-L88,> 32 nM
same,IC50,SJSA-1,2.09 nM
same,IC50,HT-144,1.72 nM
same,IC50,SW872,0.774 nM
same,IC50,NCI-H1838,> 32 nM
same,IC50,LB2241-RCC,5.55 nM
same,IC50,SBC-1,> 32 nM
same,IC50,GR-ST,3.91 nM
same,IC50,NCI-N87,30.3 nM
same,IC50,KM-H2,9.06 nM
same,IC50,CW-2,> 32 nM
same,IC50,HCE-T,4.07 nM
same,IC50,EW-13,0.903 nM
same,IC50,LXF-289 cell line,0.227 nM
same,IC50,COLO-824,23.3 nM
same,IC50,MHH-NB-11,15.2 nM
same,IC50,HCC2218,30.8 nM
same,IC50,HD-MY-Z,23.3 nM
same,IC50,SK-MEL-2,7.19 nM
same,IC50,MSTO-211H,> 32 nM
same,IC50,KNS-42,3.91 nM
same,IC50,Lu-65,21 nM
same,IC50,MMAC-SF,23 nM
same,IC50,KP-N-YS,3.93 nM
same,IC50,SNU-5,30.4 nM
same,IC50,OMC-1,> 32 nM
same,IC50,DB,7.11 nM
same,IC50,NCI-H23,23.8 nM
same,IC50,EW-11,> 32 nM
same,IC50,CGTH-W-1,2.8 nM
same,IC50,MLMA,14.1 nM
same,IC50,OS-RC-2,1.21 nM
same,IC50,ES7,5.87 nM
same,IC50,SF-268,4.66 nM
same,IC50,NCI-H747,2.54 nM
same,IC50,GI-ME-N,6.08 nM
same,IC50,MPP-89,8.29 nM
same,IC50,NCI-H1304,17.5 nM
same,IC50,GOTO,> 32 nM
